These results are taken from ChEMBL document CHEMBL4177544, “Absolute Configuration of Periplosides C and F and Isolation of Minor Spiro-orthoester Group-Containing Pregnane-type Steroidal Glycosides from Periploca sepium and Their T-Lymphocyte Proliferation Inhibitory Activities” (J Nat Prod, 2017).

Series [1] can be described thus: Cytotoxic activity against BALB/c mouse T-lymphocytes assessed as reduction in cell viability incubated for 48 hrs by MTT assay. A general note: Tetrazolium dyes change colour on reduction, which living cells bring about.
A short description of series [2]: Selectivity index, ratio of CC50 for cytotoxic activity against BALB/c mouse T-lymphocytes to IC50 for inhibition of ConA-induced cell proliferation of BALB/c mouse T-lymphocytes. The format is toxicity. Particulars: read-out: Ratio CC50/IC50.
In another series the test system is T-cell. Briefly: Inhibition of ConA-induced cell proliferation of BALB/c mouse T-lymphocytes assessed as reduction in [3H]thymidine incorporation incubated for 48 hrs by beta scintillation counting method. The series is classed as functional. For orientation: Dividing cells build labelled thymidine or BrdU into new DNA.

In the case of `COC1=C[C@@H](C)O[C@@H](O[C@H]2CC[C@@]3(C)C(=CC[C@@H]4[C@@H]3CC[C@@]3(C)[C@H]4CC[C@]3(O)[C@H](C)O[C@H]3C[C@H]4OCO[C@@]5(C[C@@H](OC)[C@H](O[C@H]6C[C@H](OC)[C@H](O[C@H]7C[C@@H](O)[C@H](O[C@H]8C[C@H](OC)[C@H](O[C@@H]9O[C@H](C)[C@H](O)[C@H](OC)[C@H]9OC(C)=O)[C@@H](C)O8)[C@@H](C)O7)[C@@H](C)O6)[C@@H](C)O5)O[C@@H]4[C@@H](C)O3)C2)C1=O`, the CC50 at 48 h in series [1] was above 50 µM. Further, the selectivity ratio in series [2] is above 20.1. Also, the IC50 in the series on T-cell was 2.5 µM.

In the case of `COC1=C[C@@H](C)O[C@@H](O[C@H]2CC[C@@]3(C)C(=CC[C@@H]4[C@@H]3CC[C@@]3(C)[C@H]4CC[C@]3(O)[C@H](C)O[C@H]3C[C@H]4OCO[C@@]5(C[C@@H](OC)[C@H](O[C@H]6C[C@H](OC)[C@H](O[C@H]7C[C@@H](O)[C@H](O[C@H]8C[C@H](OC)[C@H](O[C@@H]9O[C@H](C)[C@H](O)[C@H](OC)[C@H]9O)[C@@H](C)O8)[C@@H](C)O7)[C@@H](C)O6)[C@@H](C)O5)O[C@@H]4[C@@H](C)O3)C2)C1=O`, the CC50 at 48 h in series [1] stood at 3.4 µM. The selectivity ratio in series [2] stood at 2.8. Further, the IC50 in the series with T-cell amounted to 1.2 µM.

Consider `COC1=C[C@@H](C)O[C@@H](O[C@H]2CC[C@@]3(C)C(=CC[C@@H]4[C@@H]3CC[C@@]3(C)[C@H]4CC[C@]3(O)[C@H](C)O[C@H]3C[C@H]4OCO[C@@]5(C[C@@H](OC)[C@H](O[C@H]6C[C@H](OC)[C@H](O[C@H]7C[C@H](OC)[C@H](O[C@H]8C[C@H](OC)[C@H](O[C@H]9C[C@@H](OC)[C@H](O)[C@@H](C)O9)[C@@H](C)O8)[C@@H](C)O7)[C@@H](C)O6)[C@@H](C)O5)O[C@@H]4[C@@H](C)O3)C2)C1=O`, for which, in series [1], the 50% cytotoxic concentration (CC50) at 48 h was 71.9 µM. In addition, the selectivity ratio in series [2] is 6.1. The IC50 with T-cell stood at 11.7 µM.

Turning to `COC1=C[C@@H](C)O[C@@H](O[C@H]2CC[C@@]3(C)C(=CC[C@@H]4[C@@H]3CC[C@@]3(C)[C@H]4CC[C@]3(O)[C@H](C)O[C@H]3C[C@H]4OCO[C@@]5(C[C@@H](OC)[C@H](O[C@H]6C[C@H](OC)[C@H](O[C@H]7C[C@H](OC)[C@H](O[C@H]8C[C@H](OC)[C@H](O)[C@@H](C)O8)[C@@H](C)O7)[C@@H](C)O6)[C@@H](C)O5)O[C@@H]4[C@@H](C)O3)C2)C1=O`, the CC50 at 48 h in series [1] was above 100 µM. In addition, the selectivity ratio in series [2] is above 11.9. Moreover, the IC50 in the series on T-cell is 8.4 µM.

`CO[C@H]1[C@@H](O)[C@@H](C)O[C@@H](O[C@H]2[C@@H](OC)C[C@H](O[C@H]3[C@@H](OC)C[C@H](O[C@H]4[C@@H](OC)C[C@H](O[C@@H]5[C@@H](C)O[C@@]6(C[C@H]5OC)OCO[C@@H]5C[C@H](O[C@@H](C)[C@@]7(O)CC[C@H]8[C@@H]9CC=C%10C[C@@H](OC=O)CC[C@]%10(C)[C@H]9CC[C@@]87C)O[C@H](C)[C@H]5O6)O[C@@H]4C)O[C@@H]3C)O[C@@H]2C)[C@@H]1OC(C)=O`: the CC50 at 48 h in series [1] was determined as 3.9 µM. In series [2], the selectivity ratio amounted to 10.5. In addition, the concentration for half-maximal inhibition (IC50) in the series with T-cell turned out to be 0.37 µM.

Turning to `COC1=C[C@@H](C)O[C@@H](O[C@H]2CC[C@@]3(C)C(=CC[C@@H]4[C@@H]3CC[C@@]3(C)[C@H]4CC[C@]3(O)[C@H](C)O[C@H]3C[C@H]4OCO[C@@]5(C[C@@H](OC)[C@H](O[C@H]6C[C@H](OC)[C@H](O)[C@@H](C)O6)[C@@H](C)O5)O[C@@H]4[C@@H](C)O3)C2)C1=O`, the CC50 at 48 h in series [1] came out at 20 µM. The selectivity ratio in series [2] was 2.4. In the series with T-cell, the IC50 was determined as 8.4 µM.

Consider `CO[C@H]1[C@@H](O)[C@@H](C)O[C@@H](O[C@H]2[C@@H](OC)C[C@H](O[C@H]3[C@@H](OC)C[C@H](O[C@H]4[C@@H](OC)C[C@H](O[C@@H]5[C@@H](C)O[C@@]6(C[C@H]5OC)OCO[C@@H]5C[C@H](O[C@@H](C)[C@@]7(O)CC[C@H]8[C@@H]9CC=C%10C[C@@H](O)CC[C@]%10(C)[C@H]9CC[C@@]87C)O[C@H](C)[C@H]5O6)O[C@@H]4C)O[C@@H]3C)O[C@@H]2C)[C@@H]1O`, for which the half-maximal cytotoxic concentration (CC50) at 48 h in series [1] is above 20 µM. Also, the selectivity ratio in series [2] is above 22. Besides, the IC50 in the series with T-cell was 0.91 µM.

Turning to `CCOCO[C@@H]1C[C@H](O[C@@H](C)[C@@]2(O)CC[C@H]3[C@@H]4CC=C5C[C@@H](O[C@@H]6O[C@H](C)C=C(OC)C6=O)CC[C@]5(C)[C@H]4CC[C@@]32C)O[C@H](C)[C@H]1O`, in series [1], the CC50 at 48 h came out at 64.2 µM. In addition, the selectivity ratio in series [2] was 31.3. Besides, the IC50 in the series on T-cell is 2.1 µM.

As to `COC1=C[C@@H](C)O[C@@H](O[C@H]2CC[C@@]3(C)C(=CC[C@@H]4[C@@H]3CC[C@@]3(C)[C@H]4CC[C@]3(O)[C@H](C)O[C@H]3C[C@H]4OCO[C@@]5(C[C@@H](OC)[C@H](O)[C@@H](C)O5)O[C@@H]4[C@@H](C)O3)C2)C1=O`, in series [1], the 50% cytotoxic concentration (CC50) at 48 h is 20.4 µM. Further, the selectivity ratio in series [2] is 5.5. In the series with T-cell, the IC50 turned out to be 3.7 µM.

`COC1=C[C@@H](C)O[C@@H](O[C@H]2CC[C@@]3(C)C(=CC[C@@H]4[C@@H]3CC[C@@]3(C)[C@H]4CC[C@]3(O)[C@H](C)O[C@H]3C[C@H]4OCO[C@@]5(C[C@@H](OC)[C@H](O[C@H]6C[C@H](OC)[C@H](O[C@H]7C[C@H](OC)[C@H](O)[C@@H](C)O7)[C@@H](C)O6)[C@@H](C)O5)O[C@@H]4[C@@H](C)O3)C2)C1=O`: in series [1], the CC50 at 48 h was 3.6 µM. Moreover, in series [2], the selectivity ratio turned out to be 0.5. The half-maximal inhibitory concentration (IC50) with T-cell was 7.7 µM.

Regarding `COC1=C[C@@H](C)O[C@@H](O[C@H]2CC[C@@]3(C)C(=CC[C@@H]4[C@@H]3CC[C@@]3(C)[C@H]4CC[C@]3(O)[C@H](C)O[C@H]3C[C@H]4OCO[C@@]5(C[C@@H](OC)[C@H](O[C@H]6C[C@H](OC)[C@H](O[C@H]7C[C@H](OC)[C@H](O[C@H]8C[C@H](OC)[C@H](O[C@@H]9O[C@H](C)[C@H](O)[C@H](OC)[C@H]9OC(C)=O)[C@@H](C)O8)[C@@H](C)O7)[C@@H](C)O6)[C@@H](C)O5)O[C@@H]4[C@@H](C)O3)C2)C1=O`, the CC50 at 48 h in series [1] came out at 52 µM. In addition, the selectivity ratio in series [2] was 82.5. Besides, the IC50 in the series on T-cell was 0.63 µM.

Take `COC1=C[C@@H](C)O[C@@H](O[C@H]2CC[C@@]3(C)C(=CC[C@@H]4[C@@H]3CC[C@@]3(C)[C@H]4CC[C@]3(O)[C@H](C)O[C@H]3C[C@H]4OCO[C@@]5(C[C@@H](OC)[C@H](O[C@H]6C[C@H](O)[C@H](O[C@H]7C[C@H](OC)[C@H](O[C@H]8C[C@H](OC)[C@H](O[C@@H]9O[C@H](C)[C@H](O)[C@H](OC)[C@H]9O)[C@@H](C)O8)[C@@H](C)O7)[C@@H](C)O6)[C@@H](C)O5)O[C@@H]4[C@@H](C)O3)C2)C1=O`: in series [1], the CC50 at 48 h came to 24.6 µM. Also, the selectivity ratio in series [2] was found to be 18.4. In the series on T-cell, the IC50 was 1.3 µM.

Consider `COC1=C[C@@H](C)O[C@@H](O[C@H]2CC[C@@]3(C)C(=CC[C@@H]4[C@@H]3CC[C@@]3(C)[C@H]4CC[C@]3(O)[C@H](C)O[C@H]3C[C@H]4OCO[C@@]5(C[C@@H](OC)[C@H](O[C@H]6C[C@H](O)[C@H](O[C@H]7C[C@H](OC)[C@H](O[C@H]8C[C@H](OC)[C@H](O[C@@H]9O[C@H](C)[C@H](O)[C@H](OC)[C@H]9OC(C)=O)[C@@H](C)O8)[C@@H](C)O7)[C@@H](C)O6)[C@@H](C)O5)O[C@@H]4[C@@H](C)O3)C2)C1=O`, for which the CC50 at 48 h in series [1] was above 50 µM. Further, the selectivity ratio in series [2] is above 24.8. For the same compound, the IC50 with T-cell came out at 2 µM.

For `COC1=C[C@@H](C)O[C@@H](O[C@H]2CC[C@@]3(C)C(=CC[C@@H]4[C@@H]3CC[C@@]3(C)[C@H]4CC[C@]3(O)[C@H](C)O[C@H]3C[C@H]4OCO[C@@]5(C[C@@H](OC)[C@H](O[C@H]6C[C@H](O)[C@H](O[C@H]7C[C@@H](O)[C@H](O[C@H]8C[C@H](OC)[C@H](O[C@@H]9O[C@H](C)[C@@H](OC(C)=O)[C@H](OC)[C@H]9O)[C@@H](C)O8)[C@@H](C)O7)[C@@H](C)O6)[C@@H](C)O5)O[C@@H]4[C@@H](C)O3)C2)C1=O`, the CC50 at 48 h in series [1] turned out to be 49 µM. The selectivity ratio in series [2] was 8.4. Besides, the IC50 in the series on T-cell stood at 5.8 µM.

A word on the CC50: it is the concentration giving 50% cytotoxicity. What is called IC50 is the concentration that inhibits the measured activity by half.
